Measurements reported in publication PMC7400577 (Scientific Reports, 2020).
Where two headings read alike, the source gives them in different places.

Tests used:
Format in all cases: cell-based
hBGT1 [1] = target: T1, hBGT1 (Homo sapiens, UniProt P48065); details: for IC50: 30 nM [3H]GABA, 3 min, CHO Flp-In cells stably expressing hBGT1; for subtype-selectivity for hBGT1 over the other hGATs: estimated from [3H]GABA uptake IC50 values
T1 construct: expressed in transfected cells
T1 sequence (P48065 1-614): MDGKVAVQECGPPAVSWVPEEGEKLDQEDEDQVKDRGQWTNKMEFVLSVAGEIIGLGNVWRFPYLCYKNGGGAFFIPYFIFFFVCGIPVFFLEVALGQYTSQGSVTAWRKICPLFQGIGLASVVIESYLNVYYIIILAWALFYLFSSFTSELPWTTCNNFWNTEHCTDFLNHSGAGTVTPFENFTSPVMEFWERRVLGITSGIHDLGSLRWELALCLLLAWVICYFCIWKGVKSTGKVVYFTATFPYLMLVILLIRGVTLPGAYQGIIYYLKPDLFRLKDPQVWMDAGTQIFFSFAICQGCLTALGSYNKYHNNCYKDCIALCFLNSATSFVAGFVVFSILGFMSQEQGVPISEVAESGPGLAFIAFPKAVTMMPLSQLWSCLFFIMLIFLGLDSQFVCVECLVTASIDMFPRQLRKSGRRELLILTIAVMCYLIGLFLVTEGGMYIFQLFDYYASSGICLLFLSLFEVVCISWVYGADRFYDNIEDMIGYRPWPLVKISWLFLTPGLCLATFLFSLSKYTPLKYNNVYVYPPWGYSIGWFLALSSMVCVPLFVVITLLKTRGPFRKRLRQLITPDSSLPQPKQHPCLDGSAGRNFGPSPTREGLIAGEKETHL
Protocol: (§1) CHO Flp-In and tsA201 cells were cultured at 37 °C in a humidified atmosphere of […] and 5% CO2. As previously described[38],[63], CHO Flp-In cells stably expressing the hGATs were cultured in Ham’s F12 Nutrient Mix supplemented with 10% FBS, 1% P/S and plasmocin (5 µg/mL) under the selection pressure of hygromycin B (200 µg/mL). DMEM with GlutaMAX-I supplemented with 10% FBS and 1% P/S was used as growth medium for the tsA201 cells, which were transfected with DNA constructs using PolyFect according to the manufacturer’s specifications (Qiagen, West Sussex, UK), but with half of the recommended reagent volumes.
(§2) Uptake assays were performed in PDL-coated white 96-well polystyrene cell culture microplates (PerkinElmer, Boston, MA, USA) as previously described[38],[63]. […] Assay buffer was HBSS supplemented with 20 mM HEPES, 1 mM CaCl2 and 1 mM MgCl2, pH 7.4. […] After termination, scintillation liquid (MicroScint-20, PerkinElmer) was added and the radioactivity measured in a TopCount NXT Microplate Scintillation Counter (PerkinElmer).
(§3) Data analysis and statistical evaluation were performed in GraphPad Prism 7.02 (GraphPad Software, San Diego, CA, USA). Concentration-uptake inhibition curves, generated from the radioligand-based uptake assays, were fitted by non-linear regression, using the equation for sigmoidal concentration–response with variable slope: Y = Bottom + (Top–Bottom)/(1 + 10^((logIC50 − X) × HillSlope)), where Y is the response, X is the logarithm of the concentration, Top and Bottom are the plateaus in same units as Y, logIC50 is the concentration giving a response halfway between Bottom and Top, and the HillSlope is the steepness of the curve. For the substrate concentration–response curves generated from the FMP assay, the same equation was used but with logEC50 instead for logIC50. Unless otherwise stated, data are presented as means ± S.E.M. of at least three independent pooled experiments performed in triplicates.

hGAT3 = target: T2, hGAT3 (Homo sapiens, UniProt P48066); assay: [3H]GABA uptake inhibition at hGAT3 stably expressed in CHO Flp-In cells; details: 30 nM [3H]GABA, 3 min, CHO Flp-In cells stably expressing hGAT3
T2 construct: expressed in transfected cells
T2 sequence (P48066 1-632): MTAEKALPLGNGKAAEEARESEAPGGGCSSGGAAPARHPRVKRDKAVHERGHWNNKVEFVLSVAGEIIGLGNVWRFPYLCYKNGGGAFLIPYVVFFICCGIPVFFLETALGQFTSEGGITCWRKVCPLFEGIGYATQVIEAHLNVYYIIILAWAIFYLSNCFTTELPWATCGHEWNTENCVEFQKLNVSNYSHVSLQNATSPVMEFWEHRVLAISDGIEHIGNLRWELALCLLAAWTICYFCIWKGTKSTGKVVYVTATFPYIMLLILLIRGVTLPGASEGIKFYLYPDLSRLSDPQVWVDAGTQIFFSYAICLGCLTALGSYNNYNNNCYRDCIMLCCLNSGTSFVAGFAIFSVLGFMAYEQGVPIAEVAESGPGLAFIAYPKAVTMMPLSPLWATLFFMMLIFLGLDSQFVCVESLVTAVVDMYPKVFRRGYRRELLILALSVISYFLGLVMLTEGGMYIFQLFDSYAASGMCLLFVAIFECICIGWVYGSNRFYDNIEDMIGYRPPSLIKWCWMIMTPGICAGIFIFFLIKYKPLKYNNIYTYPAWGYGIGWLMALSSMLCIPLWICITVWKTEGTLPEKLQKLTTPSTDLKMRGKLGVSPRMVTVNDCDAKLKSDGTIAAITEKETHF
Protocol: as §1, §2, §3

hGAT1 = target: T3, hGAT1 (Homo sapiens, UniProt P30531); assay: [3H]GABA uptake inhibition at hGAT1 stably expressed in CHO Flp-In cells; details: 30 nM [3H]GABA, 3 min, CHO Flp-In cells stably expressing hGAT1
T3 construct: expressed in transfected cells
Protocol: as §1, §2, §3

hGAT2 = target: T4, hGAT2 (Homo sapiens, UniProt Q9NSD5); assay: [3H]GABA uptake inhibition at hGAT2 stably expressed in CHO Flp-In cells; details: 30 nM [3H]GABA, 3 min, CHO Flp-In cells stably expressing hGAT2
T4 construct: expressed in transfected cells
T4 sequence (Q9NSD5 1-602): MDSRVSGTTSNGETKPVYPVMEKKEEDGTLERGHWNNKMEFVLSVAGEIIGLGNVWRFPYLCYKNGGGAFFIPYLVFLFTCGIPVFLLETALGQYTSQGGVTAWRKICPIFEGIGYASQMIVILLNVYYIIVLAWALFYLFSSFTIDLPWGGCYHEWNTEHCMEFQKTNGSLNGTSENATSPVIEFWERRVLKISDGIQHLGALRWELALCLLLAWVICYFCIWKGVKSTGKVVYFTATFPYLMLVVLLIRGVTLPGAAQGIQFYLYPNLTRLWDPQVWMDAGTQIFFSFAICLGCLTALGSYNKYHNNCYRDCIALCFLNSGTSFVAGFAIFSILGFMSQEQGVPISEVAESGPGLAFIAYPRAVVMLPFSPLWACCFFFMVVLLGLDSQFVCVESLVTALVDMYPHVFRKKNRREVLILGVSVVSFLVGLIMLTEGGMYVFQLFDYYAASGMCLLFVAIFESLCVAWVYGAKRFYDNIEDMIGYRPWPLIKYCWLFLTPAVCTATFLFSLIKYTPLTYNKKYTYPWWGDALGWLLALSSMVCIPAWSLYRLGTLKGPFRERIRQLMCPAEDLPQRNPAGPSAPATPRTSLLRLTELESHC
Protocol: as §1, §2, §3

hBGT1 wt = target: T5, hBGT1 wt (Homo sapiens, UniProt P48065); assay: [3H]GABA uptake inhibition at wt hBGT1 transiently expressed in tsA201 cells; details: 30 nM [3H]GABA, tsA201 cells transiently expressing wt hBGT1
T5 construct: expressed in transfected cells; host or cells: tsA201 cells, transient (PolyFect), pcDNA5/FRT vector
T5 sequence (P48065 1-614): T1 sequence (P48065 1-614)

hBGT1 [2] = target: T1, hBGT1; assay: FLIPR Membrane Potential (FMP) assay at hBGT1 stably expressed in CHO Flp-In cells
Protocol: The fluorescence-based FMP assay was performed as previously described, for the functional characterization of the electrogenic transport of substrates via hBGT1. Briefly, CHO Flp-In cells stably expressing hBGT1 or hGAT1 were plated (~ 50,000 cells/well) into black PDL-coated 96-well plates with clear bottom (VWR, Radnor, PA, USA). The next day, the growth medium was removed, and cells were washed once with HBSS assay buffer and FMP Blue Dye (Molecular Devices, Crawley, UK), added, and incubated. Ligands were added via the NOVOStar plate reader (BMG Labtech GmbH, Offenburg, Germany), preheated to 37 °C, approximately 10 min before reading of the cell plate. The fluorescence signals were measured for 33.8 s upon ligand addition using an emission and excitation wavelength of […], respectively. Electrogenic transport of substrates via hBGT1 will lead to an influx of the negatively charged FMP Blue dye that will bind to intracellular proteins and lipids resulting in an increase in the fluorescence signal.
as §3

[3] = read-out: pIC50 ± S.E.M. hBGT1 (converted)
[4] = read-out: pIC50 ± S.E.M. hGAT2 (converted)

T3 sequence (P30531 whole entry): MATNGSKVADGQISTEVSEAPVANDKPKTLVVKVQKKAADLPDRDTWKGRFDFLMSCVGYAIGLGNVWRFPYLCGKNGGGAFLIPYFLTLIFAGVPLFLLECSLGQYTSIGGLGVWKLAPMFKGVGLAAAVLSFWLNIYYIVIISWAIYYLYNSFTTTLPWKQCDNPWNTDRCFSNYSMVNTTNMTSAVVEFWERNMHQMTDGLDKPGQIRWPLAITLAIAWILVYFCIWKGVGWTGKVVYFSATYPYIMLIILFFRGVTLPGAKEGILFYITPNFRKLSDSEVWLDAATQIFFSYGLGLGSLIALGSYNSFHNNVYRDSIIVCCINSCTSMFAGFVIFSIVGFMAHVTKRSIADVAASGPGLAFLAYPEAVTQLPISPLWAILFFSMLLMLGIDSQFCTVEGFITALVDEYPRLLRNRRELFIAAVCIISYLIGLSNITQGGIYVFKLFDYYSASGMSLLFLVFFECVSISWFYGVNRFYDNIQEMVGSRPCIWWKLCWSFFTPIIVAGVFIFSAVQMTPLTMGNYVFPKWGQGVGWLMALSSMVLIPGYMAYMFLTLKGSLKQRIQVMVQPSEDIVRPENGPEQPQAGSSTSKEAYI

Row | Structure (SMILES) | IC50 (hBGT1 [1]; read-out: IC50 hBGT1) [µM] | IC50 (hGAT3; read-out: IC50 hGAT3) [µM] | IC50 (hGAT1; read-out: IC50 hGAT1) [µM] | IC50 (hGAT2; read-out: IC50 hGAT2) [µM] | also measured
1 | C[C@@H]1N=C(N)NC[C@@H]1C(=O)O (relative stereo) [l-15] |  |  |  |  | IC50 (hBGT1 [1]; [3]): 41.7 µM
2 | NC1=NCC(C(=O)O)=CN1Cc1ccccc1 [compound 9] |  |  |  |  | IC50 (hBGT1 wt; read-out: IC50 BGT1 wt): > 1000 µM
3 | C[C@@H]1N=C(N)NC[C@@H]1C(=O)O (single isomer, unassigned) [l-15b] | 442 | > 1000 | > 1000 | > 1000 | IC50 (hBGT1 [1]; [3]): 417 µM; subtype-selectivity for hBGT1 over the other hGATs (hBGT1 [1]; CHO Flp-In cells): 2–3 times
4 | Cc1ccsc1C(=CCCN1CC(C(=O)O)CN=C1N)c1sccc1C (stereo not shown) [compound 8] |  |  |  |  | IC50 (hBGT1 wt; read-out: IC50 BGT1 wt): 621 µM; IC50 (hBGT1 wt; read-out: pIC50 ± S.E.M. BGT1 wt (converted)): 631 µM
5 | CC1=C(C(=O)O)CNC(N)=N1 [compound 12] | > 1000 | > 1000 | > 1000 | > 1000 | 
6 | CCCC1=C(C(=O)O)CNC(N)=N1 [compound 13] | > 1000 | > 1000 | > 1000 | 530 | IC50 (hGAT2; [4]): 501 µM
7 | NC1=NCC(C(=O)O)CN1CCCC(c1ccccc1)c1ccccc1 (stereo not shown) [compound 7] | > 1000 | > 1000 | > 1000 | > 1000 | 
8 | CCCC1N=C(N)NCC1C(=O)O (stereo not shown) [compound 16] | > 1000 | > 1000 | > 1000 | 601 | IC50 (hGAT2; [4]): 589 µM
9 | CC(C)C1=C(C(=O)O)CNC(N)=N1 [compound 14] | > 1000 | > 1000 | > 1000 | 1010 | IC50 (hGAT2; [4]): 955 µM

Further lines, with some results ahead:

Row | IC50 (hBGT1 [1]; read-out: IC50 hBGT1) [µM] | IC50 (hGAT3; read-out: IC50 hGAT3) [µM] | IC50 (hGAT1; read-out: IC50 hGAT1) [µM] | IC50 (hGAT2; read-out: IC50 hGAT2) [µM] | Structure (SMILES) | also measured
10 | 292 | > 1000 | > 1000 | > 1000 | C[C@H]1N=C(N)NC[C@@H]1C(=O)O (single isomer, unassigned) [u-15a] | IC50 (hBGT1 [1]; [3]): 269 µM; subtype-selectivity for hBGT1 over the other hGATs (hBGT1 [1]; CHO Flp-In cells): 2–3 times
11 | > 1000 | > 1000 | > 1000 | > 1000 | NC1=NC(CCc2ccccc2)C(C(=O)O)CN1 (stereo not drawn) [l-18] | 
12 | > 1000 | > 1000 | > 1000 | > 1000 | CC(C)C1N=C(N)NCC1C(=O)O (stereo not shown) [compound 17] | 
13 | > 1000 | > 1000 | > 1000 | > 1000 | NC1=N[C@@H](CCc2ccc(-c3ccccc3)cc2)[C@@H](C(=O)O)CN1 (relative stereo) [l-19] | 
14 | > 1000 | > 1000 | > 1000 | > 1000 | NC1=NCC(C(=O)O)CN1CCC(c1ccccc1)c1ccccc1 (stereo not shown) [compound 6] | 
15 | > 1000 | > 1000 | 439 | > 1000 | O=C(O)C1CN=C(NCCc2ccccc2)NC1 (stereo not shown) [compound 10] | IC50 (hGAT1; read-out: pIC50 ± S.E.M. hGAT1 (converted)): 427 µM
16 | 85 | > 1000 | > 1000 | > 1000 | C[C@H]1N=C(N)NC[C@@H]1C(=O)O (single isomer, unassigned) [u-15b] | IC50 (hBGT1 [1]; [3]): 77.6 µM; subtype-selectivity for hBGT1 over the other hGATs (hBGT1 [1]; CHO Flp-In cells): at least 12 times
17 | 50 | 396 | 1040 | 382 | NC1=NCC(C(=O)O)CN1Cc1ccc(-c2ccccc2)cc1 (stereo not shown) [compound 5] | decrease of hBGT1 inhibitory potency compared to ATPCA (hBGT1 [1]; [3H]GABA uptake, CHO Flp-In cells): 20–65 fold; subtype-selectivity for hBGT1 over the other hGATs (hBGT1 [1]; CHO Flp-In cells): at least 7 times; IC50 (hGAT3; read-out: pIC50 ± S.E.M. hGAT3 (converted)): 380 µM; substrate character at hBGT1 in FMP assay (hBGT1 [2]; concentration-dependent increase in fluorescence signal): substrates for hBGT1; Mean Rmax as % of GABA Rmax ± S.E.M. (hBGT1 [2]; hBGT1 stably expressed in CHO Flp-In cells, FMP assay): 73 ± 2.8 % of GABA Rmax; EC50 (hBGT1 [2]; hBGT1 stably expressed in CHO Flp-In cells, three independent experiments): 194 µM
